# Assay results taken from patent publication US20230091047A1 (priority 2019, published 2023).
# Where two headings read alike, the source gives them in different places.
# Tests used:
# [1] = system: HBV (HepG2.117 cell line, inducibly HBV producing); test: Anti-HBV activity: intracellular HBV DNA by real-time PCR in HepG2.117 cells after 3 days of treatment; assay type: cell-based, hepatitis B virus
# Outline: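 Read-out is intracellular HBV DNA, measured by real-time PCR using HBV-specific primers and probe. Cells were stable, inducible HBV-producing HepG2.117 (Tet-off). Serially diluted compound was applied for 3 days after replication was induced.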
# HepG2 cells = test: in vitro; assay type: cell-based; conditions: HepG2 or HepG2.117 cells, ATPlite, mean value, read-out: CC50 (μM, mean value)
# Outline: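 Luminescent ATP quantitation served as the viability endpoint following a 3- or 4-day incubation with test compounds.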
# [2] = HepG2.117 cells, 3 days of treatment, intracellular HBV DNA by real-time PCR; mean value; read-out: EC50 (μM, mean value)
# [3] = 3-days incubation (unmarked values)
# [4] = HepG2.117 cells, intracellular HBV DNA by real-time PCR, 3 days of treatment, mean value; read-out: EC50 (μM, mean value)
# [5] = 3-days incubation (not marked with *)
SMILES,"EC50 [1, 2] [µM]",CC50 (HepG2 cells; [3]) [µM],"EC50 [1, 4] [µM]",CC50 (HepG2 cells; [5]) [µM],"EC50 ([1]; Hepatitis B virus, HepG2.117, 72 h, HepG2.117 cells, intracellular HBV DNA by real-time PCR, 3 days of treatment, mean value; read-out: EC50 (μM, mean value)) [µM]"
"COc1ccc(CNc2nc3c(c(=O)n2-c2ccccc2OC)C[C@H](C)N(C(=O)c2ccc(Cl)c(Cl)c2)C3)cc1 (single isomer, unassigned) [Compound C36Bb]",> 50,> 50,,,
"COc1ccccc1-n1c(N[C@@H](C)CO)nc2c(c1=O)CCN(C(=O)c1ccc(Cl)c(Cl)c1)C2 (single isomer, unassigned) [Compound C62Bb, 7-(3,4-dichlorobenzoyl)-2-{[(2*S)-1-hydroxypropan-2-yl]amino}-3-(2-methoxyphenyl)-5,6,7,8-tetrahydropyrido[3,4-d]pyrimidin-4(3H)-one]",6.6,> 50,,,
"COc1ccccc1-n1c(N[C@H](C)C(F)(F)F)nc2c(c1=O)CCN(C(=O)c1ccc(Cl)c(Cl)c1)C2 (single isomer, unassigned) [Compound C101b]",9.59,33.2,,,
"CNC(=O)c1ccc(-n2c(NC(C)C)nc3c(c2=O)C[C@@H](C)N(C(=O)c2ccc(Cl)c(Cl)c2)C3)c(Cl)c1 (single isomer, unassigned) [Compound C293a]",0.06,33.4,,,
"Cc1cc(-n2cccn2)ccc1-n1c(NC(C)C)nc2c(c1=O)C[C@@H](C)N(C(=O)c1ccc(Cl)c(Cl)c1)C2 (single isomer, unassigned) [Compound C308b]",0.16,> 50,,,
"CNC(=O)c1ccc(-n2c(NC(C)C)nc3c(c2=O)C[C@@H](C)N(C(=O)c2ccc(Cl)c(Cl)c2)C3)c(OC)c1 (single isomer, unassigned) [Compound C314b]",0.22,> 50,,,
"CNC(=O)c1ccc(-n2c(NC(C)C)nc3c(c2=O)C[C@@H](C)N(C(=O)c2ccc(Cl)c(Cl)c2)C3)c(C(F)(F)F)c1 (single isomer, unassigned) [Compound C340b]",0.39,29.8,,,
"CCc1cc(C(=O)NC)ccc1-n1c(NC(C)C)nc2c(c1=O)C[C@@H](C)N(C(=O)c1ccc(Cl)c(Cl)c1)C2 (single isomer, unassigned) [Compound C383b]",,,0.17,> 45,
"CNC(=O)c1ccc(-n2c(N[C@@H](C)c3ccccc3)nc3c(c2=O)C[C@@H](C)N(C(=O)c2ccc(Cl)c(Cl)c2)C3)c(Cl)c1 (single isomer, unassigned) [Compound C386b]",,,0.1,> 50,
"CNC(=O)c1ccc(-n2c(N[C@@H](C)C3CC3)nc3c(c2=O)C[C@@H](C)N(C(=O)c2ccc(Cl)c(Cl)c2)C3)c(Cl)c1 (single isomer, unassigned) [Compound C387b]",,,0.06,36.8,
"CC(C)Nc1nc2c(c(=O)n1-c1ccc(-c3nccn3C)cc1Cl)C[C@@H](C)N(C(=O)c1ccc(Cl)c(Cl)c1)C2 (single isomer, unassigned) [Compound C392b]",,,0.12,26.7,
"CC(C)Nc1nc2c(c(=O)n1-c1ccc(-c3ncc[nH]3)cc1Cl)C[C@@H](C)N(C(=O)c1ccc(Cl)c(Cl)c1)C2 (single isomer, unassigned) [Compound C393a]",,,0.12,14.1,
"CC(C)Nc1nc2c(c(=O)n1-c1ccc(-c3ncc[nH]3)cc1Cl)C[C@@H](C)N(C(=O)c1ccc(Cl)c(Cl)c1)C2 (single isomer, unassigned) [Compound C393b]",,,0.24,31.7,
"Cc1cc(-c2ncc[nH]2)ccc1-n1c(NC(C)C)nc2c(c1=O)C[C@@H](C)N(C(=O)c1ccc(Cl)c(Cl)c1)C2 (single isomer, unassigned) [Compound C399a]",,,0.14,27.7,
"Cc1cc(-c2ncc[nH]2)ccc1-n1c(NC(C)C)nc2c(c1=O)C[C@@H](C)N(C(=O)c1ccc(Cl)c(Cl)c1)C2 (single isomer, unassigned) [Compound C399b]",,,0.16,27,
"COc1ccc([C@H](C)Nc2nc3c(c(=O)n2-c2ccc(NC(C)=O)cc2)C[C@@H](C)N(C(=O)c2ccc(Cl)c(Cl)c2)C3)cc1 (single isomer, unassigned) [Compound C410a]",,,0.95,> 50,
"CNC(=O)c1ccc(-n2c(NC(C)C)nc3c(c2=O)C[C@@H](C)N(C(=O)c2ccc(Cl)c(Cl)c2)C3)c(C(C)C)c1 (single isomer, unassigned) [Compound C420a]",,,0.72,21.7,
"CNC(=O)c1ccc(-n2c(NC(C)C)nc3c(c2=O)C[C@@H](C)N(C(=O)c2ccc(Cl)c(Cl)c2)C3)c(C(C)C)c1 (single isomer, unassigned) [Compound C420b]",,,0.35,23.5,
"CNc1noc2cc(-n3c(NC(C)C)nc4c(c3=O)C[C@@H](C)N(C(=O)c3ccc(Cl)c(Cl)c3)C4)c(C)cc12 (single isomer, unassigned) [Compound C447a]",,,0.23,> 50,
"CNc1noc2cc(-n3c(NC(C)C)nc4c(c3=O)C[C@@H](C)N(C(=O)c3ccc(Cl)c(Cl)c3)C4)c(C)cc12 (single isomer, unassigned) [Compound C447b]",,,0.05,> 50,
"Cc1c[nH]c(-c2ccc(-n3c(NC(C)C)nc4c(c3=O)C[C@@H](C)N(C(=O)c3ccc(Cl)c(Cl)c3)C4)c(Cl)c2)n1 (single isomer, unassigned) [Compound C455a]",,,,17.6,0.05
"Cc1c[nH]c(-c2ccc(-n3c(NC(C)C)nc4c(c3=O)C[C@@H](C)N(C(=O)c3ccc(Cl)c(Cl)c3)C4)c(Cl)c2)n1 (single isomer, unassigned) [Compound C455b]",,,0.1,> 50,
"CNC(=O)c1ccc(-n2c(NC(C)C)nc3c(c2=O)C[C@@H](C)N(C(=O)c2ccc(Cl)c(C(F)(F)F)c2)C3)c(Cl)c1 (single isomer, unassigned) [Compound C639b]",,,0.02,25.4,
"CNC(=O)c1ccc(-n2c(NC(C)C)nc3c(c2=O)C[C@@H](C)N(C(=O)c2ccc(Cl)c(C(F)(F)F)c2)C3)c(OC)c1 (single isomer, unassigned) [Compound C643a]",,,0.04,> 50,
"CNC(=O)c1ccc(-n2c(NC(C)C)nc3c(c2=O)C[C@@H](C)N(C(=O)c2ccc(Cl)c(C(F)(F)F)c2)C3)c(OC)c1 (single isomer, unassigned) [Compound C643b]",,,0.05,> 50,
"CNC(=O)c1ccc(-n2c(NC(C)C)nc3c(c2=O)C[C@@H](C)N(C(=O)c2ccc(Cl)c(C(F)(F)F)c2)C3)c(C2CC2)c1 (single isomer, unassigned) [Compound C661a]",,,0.07,> 50,
"CNC(=O)c1ccc(-n2c(NC(C)C)nc3c(c2=O)C[C@@H](C)N(C(=O)c2ccc(Cl)c(C(F)(F)F)c2)C3)c(C2CC2)c1 (single isomer, unassigned) [Compound C661b]",,,0.06,25.4,
"CNC(=O)c1ccc(-n2c(NC(C)C)nc3c(c2=O)C[C@@H](C)N(C(=O)c2ccc(Cl)c(C(F)(F)F)c2)C3)c(C(F)F)c1 (single isomer, unassigned) [Compound C669b]",,,0.04,> 50,
"CC(C)Nc1nc2c(c(=O)n1-c1ccc(C(=O)NC3CC3)cc1Cl)C[C@@H](C)N(C(=O)c1ccc(Cl)c(C(F)(F)F)c1)C2 (single isomer, unassigned) [Compound C673b]",,,0.03,> 50,
"CNC(=O)c1ccc(-n2c(N[C@@H](C)C3CC3)nc3c(c2=O)C[C@@H](C)N(C(=O)c2ccc(Cl)c(C(F)(F)F)c2)C3)c(Cl)c1 (single isomer, unassigned) [Compound C676b]",,,0.02,28.7,
